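Protocol summary: plate cells (96-well), add compound at 5 concentrations, incubate 48 h, interpolate endpoints linearly. Abbreviation: GI50, concentration required for 50% inhibition of growth. TGI: total growth inhibition.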
How the values were obtained:
Assay in all cases: growth of human tumour cells (NCI), 48 h
MDA-N = tested on: MDA-N
XF 498 CNS = tested on: XF 498 CNS
LXFL 529 NSCLC = tested on: LXFL 529 NSCLC
DLD-1 colon = tested on: DLD-1 colon
SNB-78 CNS = tested on: SNB-78 CNS
HOP-18 NSCLC = tested on: HOP-18 NSCLC
DMS 114 small cell lung = tested on: DMS 114 small cell lung
RXF-631 renal = tested on: RXF-631 renal
DMS 273 small cell lung = tested on: DMS 273 small cell lung

Row | Structure (SMILES) | TGI (MDA-N) [µM] | TGI (XF 498 CNS) [µM] | TGI (LXFL 529 NSCLC) [µM] | TGI (DLD-1 colon) [µM] | TGI (SNB-78 CNS) [µM] | TGI (HOP-18 NSCLC) [µM] | TGI (DMS 114 small cell lung) [µM] | TGI (RXF-631 renal) [µM] | TGI (DMS 273 small cell lung) [µM] | further results
1 | NC(=O)C(NC=O)c1ccccc1 (centres undefined) | > 100 | – | – | – | – | – | – | – | – | –
2 | COc1cc([C@@H]2c3cc4c(cc3[C@H](O)[C@H]3COC(=O)[C@H]23)OCO4)cc(OC)c1OC | 0.5 | > 100 | > 100 | > 100 | > 100 | > 100 | – | – | – | –
3 | CC1OC(OC2CC(O)C3(CO)C4C(O)CC5(C)C(C6=CC(=O)OC6)CCC5(O)C4CCC3(O)C2)C(O)C(O)C1O (centres undefined) | 0.122 | – | – | – | – | – | – | – | – | GI50 (MDA-N): < 0.0195 µM
4 | CCOC(=O)C(=O)N=Nc1nc2c(O)c3ccccc3c(O)c2s1 | 3.2 | 4.46 | 3.3 | 10.2 | 8.48 | 7.06 | 3.39 | 39.9 | 9.2 | –
5 | CC1=C(c2cc(C(=O)Nc3ccc(Cl)c(Cl)c3)nc(N)n2)Sc2ccccc2N1 | – | > 100 | > 100 | > 100 | > 100 | > 100 | > 100 | – | > 100 | –
6 | CC[O-].Cc1ccc2cccc([O-])c2n1.Cc1ccc2cccc([O-])c2n1.Cc1ccc2cccc([O-])c2n1.[Ti+4] | – | 58.3 | > 49.3 | > 81 | > 100 | > 92.6 | > 59.3 | > 65.4 | > 67.7 | GI50 (XF 498 CNS): 17.3 µM; GI50 (DMS 114 small cell lung): 21.9 µM; GI50 (LXFL 529 NSCLC): 24.8 µM; GI50 (DLD-1 colon): 28.9 µM; GI50 (SNB-78 CNS): 59.7 µM; GI50 (HOP-18 NSCLC): 41.1 µM; GI50 (RXF-631 renal): 18.8 µM; GI50 (DMS 273 small cell lung): > 33.3 µM
7 | COC(=O)c1ccc([N+](=O)[O-])c(O)c1 | > 100 | – | – | – | – | – | – | – | – | –
8 | C=C1Oc2nc3ccccc3c(=O)n2C1(C)C | – | > 100 | > 100 | > 100 | > 100 | > 100 | > 100 | – | > 100 | –
9 | O=C(O)CCC1(Br)CCCCC(Br)C1=O (centres undefined) | – | > 100 | > 100 | – | > 100 | > 100 | > 100 | – | > 100 | –
10 | CN(c1ccccc1)C1C(=O)N(c2ccccc2)C1/C=C/c1ccccc1 (centres undefined) | – | – | > 100 | > 100 | > 100 | – | – | – | > 100 | –
11 | CC(=O)OC1CCC2(C)C(=CCC3C2CCC2(C)C(C(C)C(=O)O)CCC32)C1 (centres undefined) | > 100 | – | – | – | – | – | – | – | – | –
12 | CC(=O)OC(C)(C)N=Nc1ccc(Br)cc1 | > 100 | – | – | – | – | – | – | – | – | –
13 | O=C(O)C#CCO | – | > 100 | > 100 | – | > 100 | – | > 100 | > 100 | > 100 | –
14 | Cc1ccccc1N=Nc1c(O)[nH]c2ccccc12 | > 100 | – | – | – | – | – | – | – | – | –
15 | CCc1c(Cl)nc(Cl)nc1Cl | 10.8 | – | – | – | – | – | – | – | – | –
16 | COC(=O)C1CCC(Nc2cccc(C(F)(F)F)c2)=N1 (centres undefined) | – | > 100 | > 100 | > 100 | > 100 | > 100 | > 100 | > 100 | > 100 | –
17 | O=c1c2ccccc2c(=O)c2c1cc(Cl)c1[nH]c3c([nH]c12)c(Cl)cc1c(=O)c2ccccc2c(=O)c13 | – | – | – | > 100 | > 100 | – | > 100 | – | > 100 | –
18 | O=C(O)C1c2ccccc2C(C(=O)O)c2ccccc21 (centres undefined) | – | – | > 100 | > 100 | > 100 | > 100 | > 100 | – | > 100 | –
19 | Cc1cc(C(=O)N2CCN(Cc3ccccc3)CC2)c(C)o1 | – | > 100 | > 100 | > 100 | > 100 | > 100 | > 100 | – | – | –

Row | Structure (SMILES) | TGI (MDA-N) [µM] | TGI (XF 498 CNS) [µM] | TGI (LXFL 529 NSCLC) [µM] | TGI (DLD-1 colon) [µM] | TGI (SNB-78 CNS) [µM] | TGI (HOP-18 NSCLC) [µM] | TGI (DMS 114 small cell lung) [µM] | TGI (RXF-631 renal) [µM] | TGI (DMS 273 small cell lung) [µM] | further results
20 | COc1cccc(NC(=O)CC(=O)N2NC(C)C(N=Nc3cccc(C(=O)O)c3)C2=O)c1 (centres undefined) | – | – | > 100 | > 100 | > 100 | > 100 | > 100 | > 100 | > 100 | –
21 | CCC[CH2][Sn]([CH2]CCC)([O]C(=O)c1nccnc1N)[O]C(=O)c1nccnc1N | – | 2.68 | 0.327 | 2.12 | 1.57 | 3.8 | – | – | 2.12 | GI50 (XF 498 CNS): 1.38 µM; GI50 (LXFL 529 NSCLC): 0.124 µM; GI50 (DLD-1 colon): 0.876 µM; GI50 (SNB-78 CNS): 0.388 µM; GI50 (HOP-18 NSCLC): 2.32 µM; GI50 (DMS 273 small cell lung): 0.869 µM
22 | O=S1(=O)CS(=O)(=O)OCCCO1 | > 100 | – | – | – | – | – | – | – | – | –
23 | O=C1/C(=C/c2ccccc2)CCC/C1=C\c1ccccc1 | 7.71 | – | 15.8 | 8.83 | > 87.9 | 38.7 | 24.3 | 50.5 | 21.5 | –
24 | Clc1ccc(OC2CCO2)cc1Cl (centres undefined) | – | – | > 100 | > 100 | > 100 | > 100 | > 100 | > 100 | > 100 | –
25 | C/C(=N/NC(=O)C(N)=O)C(CC(C(=O)Nc1ccccc1C)/C(C)=N\NC(=O)C(N)=O)C(=O)Nc1ccccc1C (centres undefined) | – | – | > 100 | > 100 | > 100 | – | – | – | – | –
26 | Cc1cc(NS(=O)(=O)c2ccc(NC(=O)c3cccc4c(Nc5ccc(S(=O)(=O)Nc6cc(C)on6)cc5)c5ccccc5nc34)cc2)no1 | – | 96.1 | 95.5 | > 100 | > 100 | 69.3 | > 100 | – | > 100 | –
27 | N#CCC(=O)N/N=C1\C(=O)N(c2ccc(Cl)cc2)C(=O)C(=O)C1c1nc2ccccc2o1 (centres undefined) | – | – | > 100 | > 100 | > 100 | > 100 | > 100 | > 100 | > 100 | –
28 | CC(=O)OC1C(CCl)OC(N=[N+]=[N-])C(OC(C)=O)C1OC(C)=O (centres undefined) | – | > 100 | – | > 100 | – | – | > 100 | > 100 | > 100 | –
29 | CC1(C)CC2C=C(C=O)C3(C=O)CC3(C)C2C1 (centres undefined) | 9.36 | – | – | – | – | – | – | – | – | –
30 | CC(C)(C)[Si](C)(C)O/N=C\c1ccc(O[Si](C)(C)C(C)(C)C)cc1 | – | 83 | > 100 | > 100 | > 100 | > 100 | 75.3 | 53.5 | > 100 | –
31 | COc1ccc2c(=O)c3cc([N+](=O)[O-])ccc3n(C)c2c1 | > 100 | – | – | – | – | – | – | – | – | –
32 | CN1c2ccccc2S(=O)(=O)n2c(COc3ccc(Cl)cc3)nnc21 | > 100 | – | – | – | – | – | – | – | – | –
33 | C[C@H]1CC(=O)C2=CCCC3(SCCCS3)[C@@H]2[C@H]1CO | – | > 100 | > 100 | > 100 | – | > 100 | > 100 | > 100 | > 100 | –
34 | COc1cc2c3c(n(C)c(=O)c2cc1OC)-c1cc2c(cc1/C3=C\CCCBr)OCO2 | > 100 | – | – | – | – | – | – | – | – | GI50 (MDA-N): > 100 µM
35 | C=CCN(/C=C1\C(=O)O[C@H](COC)[C@@]2(C)C1=C(O)C(=O)C1=C2[C@H](OC(C)=O)C[C@]2(C)C(=O)CC[C@@H]12)CC=C | 20 | – | – | – | – | – | – | – | – | GI50 (MDA-N): 5.91 µM
36 | COc1cc2cc[n+]3c4cc(OC)c(OC)cc4c(C)cc3c2cc1OC | – | > 100 | > 100 | > 100 | > 100 | > 100 | > 100 | > 100 | > 100 | –
37 | C[C@H]1CC[C@@H]2[C@@H](C)[C@H]3[C@H](C[C@H]4[C@@H]5CC=C6C[C@@H](O)CC[C@]6(C)[C@H]5C[C@H](O)[C@]34C)N2C1 | > 100 | – | – | – | – | – | – | – | – | –
38 | Cc1cc(C)cc(Sc2c([N+](=O)[O-])ncn2C)c1 | – | 59.5 | 40.9 | 27.5 | 58.9 | 14.4 | 34.4 | 51.3 | 25.8 | –
